Measured values published in patent US20260137698A1, “CYCLIN-DEPENDENT KINASE 7 INHIBITORS” (JOINT STOCK COMPANY «BIOCAD», priority 2022, published 2026).
pIC50: −log10 of the molar value.

How the values were obtained:
[1] = biological target: CDK2/Cyclin A (Homo sapiens, UniProt P24941); assay: Inhibition of CDK2/Cyclin A kinase activity (ADP-Glo); assay type: biochemical; conditions: mean value from several measurements; read-out: IC50 CDK2/Cyclin A
Method: (§1) Measurements were carried out in a 5 μl reaction volume using a 384-well plate (Corning Inc., order no. 4513). The analyzed substances were titrated from 50 μM in increments of 4 at 11 concentration points in a normal strength kinase buffer A (Thermo Fisher Scientific Inc, cat. no. PV3189) supplemented with DTT (Sigma, orde. no. 646563-10X.5ML) and prepared with water (Panreac, order no. 701074). Kinase was diluted in an analogous buffer, mixed with test compounds in plate wells and preincubated for 10 minutes at 25° C. Following incubation, a mixture of reaction substrate (CDKtide (SignalChem, order no. C06-58) or Histone H1 (SignalChem, order no. H10-54N) or PDKtide (SignalChem, order no. P10-58) and ATP (SignalChem, order no. V915B) prepared on a normal strength kinase buffer A was added. 1% solution of dimethyl sulfoxide (DMSO) (Sigma-Aldrich, order no. D2438) in the reaction volume was used as a negative control. The final concentrations of all reaction components are shown in Table 5. The plate was centrifuged at 400 rcf (Eppendorf, 5804 R) for 1 minute and incubated for 40-60 minutes at 25° C. The amount of ATP consumed in the kinase reaction was then measured using the ADP-Glo™ detection system. Luminescence signal was measured using Spark 20M tablet multifunction reader (Tecan Group Ltd, Switzerland). IC50 value was calculated using Magellan 7.2 (Tecan Group Ltd, Switzerland) by approximating experimental points by four-parameter model with the optimization by Levenberg-Marquardt:
(§2) [formula] • where A is the upper asymptote; D is the lower asymptote; C is IC50, half-maximal inhibitory concentration of kinase, nM; B is the curvature (slope).

[2] = system: MDA-MB-468 (triple negative breast cancer); assay: Antiproliferative assay on MDA-MB-468 cells (AlamarBlue, 96 h); assay type: cell-based; conditions: Homo sapiens, mean value from several measurements
Method: The antiproliferative activity of CDK7 inhibitors according to the present invention was evaluated in a cell test using continuous cell cultures: MDA-MB-468 (triple negative breast cancer, ATCC® HTB-132™) and NCl-H82 (small cell lung cancer, ATCC® HTB-175™) using a viable AlamarBlue dye (Thermo Fisher Scientific Inc, order no. DAL1100). The cells were grown in DMEM (PanEco, order no. C330π) and RPMI-1640 (PanEco, order no. C330π), respectively. The basal growth medium was enriched with L-glutamine at a concentration of 2 mM (PanEco, order no. Φ032) and 10% fetal bovine serum (Gibco, order no. 16140-071). The night before measurement, MDA-MB-468 adherent cells were detached from plastic with a solution of trypsin-EDTA (PanEco, order no. Π039π), the solution was then inactivated by a DMEM complete medium, centrifuged at 1000 RPM (Eppendorf, 5804 R), a suspension of cells was prepared in a DMEM complete medium, introduced into 96-well culture plates (Corning Inc, order no. 3599) at 8×10^3 cells in 100 μl of medium per well. The next day, test compounds were dissolved in DMSO and diluted with a DMEM complete medium to a final concentration ranging from 50 μM to 10 pM. Diluted compounds in a volume of 50 μl were introduced into the plate wells with cells in triplicates (the final concentration of DMSO was no more than 1%) and incubated at 37° C. in an incubator with 5% CO2 for 96 hours. NCl-H82 suspension cell line was prepared on the day of the analysis. 10×10^3 cells in 100 μl of an RPMI-1640 complete medium were added to each well of a 96-well plate. The procedure for sample dilution is as described above. Cells with test compounds were incubated at 37° C. in an incubator with 5% CO2 for 120 hours. Following incubation, […] of AlamarBlue reagent (Thermo Fisher Scientific Inc., order no. DAL1100) was added to the wells, the contents of the plates were stirred in an orbital shaker (Biosan, Latvia), then further incubated for 5.5-6 hours at 37° C. in an incubator with 5% CO2. The number of viable cells was detected using the Infinite M200Pro microplate spectrophotometer (Tecan Group Ltd, Switzerland) by way of measuring a fluorescent signal at an excitation wavelength (λEx) of 540 nm and an emission wavelength (λEm) of 590 nm.
IC50 value was calculated using the Magellan software (Tecan Group Ltd, Switzerland) by approximating experimental points by four-parameter model with the optimization by Levenberg-Marquardt: […]

[3] = biological target: CDK9/Cyclin K (Homo sapiens, UniProt P50750); assay: Inhibition of CDK9/Cyclin K kinase activity (ADP-Glo); assay type: biochemical; conditions: mean value from several measurements; read-out: IC50 CDK9/Cyclin K
Chain of CDK9/Cyclin K (P50750 whole entry): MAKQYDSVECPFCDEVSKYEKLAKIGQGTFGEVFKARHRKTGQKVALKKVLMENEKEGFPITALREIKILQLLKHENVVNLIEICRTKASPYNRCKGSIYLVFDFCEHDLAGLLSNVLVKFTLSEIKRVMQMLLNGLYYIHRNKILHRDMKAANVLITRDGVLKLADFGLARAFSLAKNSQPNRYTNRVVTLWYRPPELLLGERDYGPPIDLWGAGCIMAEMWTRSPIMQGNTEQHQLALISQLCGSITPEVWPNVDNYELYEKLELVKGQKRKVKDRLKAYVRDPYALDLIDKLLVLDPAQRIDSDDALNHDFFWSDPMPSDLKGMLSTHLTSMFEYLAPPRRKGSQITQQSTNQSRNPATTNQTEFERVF
Chain of CDK9/Cyclin K (O75909 whole entry partner): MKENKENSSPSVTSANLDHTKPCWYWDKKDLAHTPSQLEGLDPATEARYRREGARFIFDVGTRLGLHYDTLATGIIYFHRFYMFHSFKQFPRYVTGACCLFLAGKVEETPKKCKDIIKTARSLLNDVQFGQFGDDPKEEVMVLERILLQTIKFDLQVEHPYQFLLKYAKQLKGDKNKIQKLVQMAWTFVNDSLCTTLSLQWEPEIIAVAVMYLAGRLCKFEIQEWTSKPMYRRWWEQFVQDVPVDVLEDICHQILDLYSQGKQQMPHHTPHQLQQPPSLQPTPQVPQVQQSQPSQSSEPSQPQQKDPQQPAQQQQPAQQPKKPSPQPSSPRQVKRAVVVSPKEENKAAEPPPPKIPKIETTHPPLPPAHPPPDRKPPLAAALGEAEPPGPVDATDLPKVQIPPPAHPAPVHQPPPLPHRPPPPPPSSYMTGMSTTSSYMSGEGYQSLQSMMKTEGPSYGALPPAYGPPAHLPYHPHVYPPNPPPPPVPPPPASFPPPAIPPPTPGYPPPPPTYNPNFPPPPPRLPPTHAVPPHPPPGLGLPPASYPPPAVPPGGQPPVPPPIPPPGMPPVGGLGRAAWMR
Method: as §1, §2

[4] = General cytotoxicity on primary differentiated HepaRG cells (72 h); assay type: cell-based; conditions: human, general toxicity, mean value from several measurements
Text: General cytotoxicity of CDK7 inhibitors according to the present invention was investigated using primary differentiated HepaRG cells (Biopredic Int, order no. HPR101). A week before the measurement, the cells were thawed and maintained in Basal hepatic cell medium (Biopredic Int, order no. MIL700079) supplemented with HepaRG maintenance/metabolism medium supplement with antibiotics (Biopredic Int, order no. ADD620C). The medium in vials with cells was changed every 2-3 days. The night before the test, the cells were plated in wells of 96-well plates (Corning Inc., order no. 3599) at 25×10^3 cells in 100 μl of medium per well. The next day, test compounds were introduced into plate wells with cells, untitrated at a concentration ranging from 200 μM to 0.2 nM, and incubated for 72 hours. Cell viability was assessed as described above.

[5] = biological target: CDK7/Cyclin H/MNAT1 (Homo sapiens, UniProt P50613); assay: Inhibition of CDK7/Cyclin H/MNAT1 kinase activity (ADP-Glo); assay type: biochemical; conditions: mean value from several measurements; read-out: IC50 CDK7/Cyclin H/MNAT
Chain of CDK7/Cyclin H/MNAT1 (P50613 whole entry): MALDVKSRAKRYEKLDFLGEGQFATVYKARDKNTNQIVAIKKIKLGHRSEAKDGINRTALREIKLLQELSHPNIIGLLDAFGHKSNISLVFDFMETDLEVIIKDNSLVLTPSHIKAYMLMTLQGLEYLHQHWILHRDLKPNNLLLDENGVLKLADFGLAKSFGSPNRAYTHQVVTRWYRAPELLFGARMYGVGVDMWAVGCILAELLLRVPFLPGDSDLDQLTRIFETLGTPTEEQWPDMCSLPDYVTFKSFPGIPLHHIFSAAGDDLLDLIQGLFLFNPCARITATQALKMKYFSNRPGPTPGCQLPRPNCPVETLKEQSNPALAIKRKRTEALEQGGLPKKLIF
Chain of CDK7/Cyclin H/MNAT1 (P51946 whole entry partner): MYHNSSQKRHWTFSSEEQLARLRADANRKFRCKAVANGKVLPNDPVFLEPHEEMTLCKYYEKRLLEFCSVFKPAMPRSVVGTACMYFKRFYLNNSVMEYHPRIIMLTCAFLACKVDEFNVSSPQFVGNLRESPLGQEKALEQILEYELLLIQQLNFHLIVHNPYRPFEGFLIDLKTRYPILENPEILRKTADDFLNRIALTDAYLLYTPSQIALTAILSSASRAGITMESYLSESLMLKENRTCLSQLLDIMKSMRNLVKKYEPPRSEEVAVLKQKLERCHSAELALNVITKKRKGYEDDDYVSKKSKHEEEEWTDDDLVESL
Chain of CDK7/Cyclin H/MNAT1 (P51948 whole entry partner): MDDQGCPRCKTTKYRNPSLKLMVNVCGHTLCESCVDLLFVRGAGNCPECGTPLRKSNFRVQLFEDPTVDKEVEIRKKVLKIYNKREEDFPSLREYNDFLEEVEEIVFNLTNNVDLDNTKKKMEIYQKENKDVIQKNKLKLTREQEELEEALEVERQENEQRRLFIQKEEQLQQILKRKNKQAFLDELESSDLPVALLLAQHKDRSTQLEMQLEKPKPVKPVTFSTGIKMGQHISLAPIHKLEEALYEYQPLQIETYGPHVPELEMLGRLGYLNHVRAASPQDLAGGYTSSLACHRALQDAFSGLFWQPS
Method: as §1, §2

Compound | pIC50 [1] | pIC50 [2] | pIC50 [3] | pIC50 [5] | CC50 at 72 h [4]
O=C(c1ccccc1)c1cc(-c2nc(N[C@H]3CCCNC3)ncc2C(F)(F)F)c[nH]1 [CDK7_535, 4-(5-benzoyl-1H-pyrrol-3-yl)-N-[(3S)-piperidin-3-yl]-5-(trifluoromethyl) pyrimidin-2-amine] | < 6.70 | 6.00 to 7.00 | 6.70 to 7.30 | 7.30 to 8.30 | > 2 µM
NC(=O)c1cc(-c2nc(N[C@H]3CCCNC3)ncc2C(F)(F)F)c[nH]1 [CDK7_537, 4-(2-{[(3S)-piperidin-3-yl]amino}-5-(trifluoromethyl)pyrimidin-4-yl)-1H-pyrrole-2-carboxamide] | < 6.70 | 6.00 to 7.00 | 7.30 to 8.30 | 7.30 to 8.30 | 0.1 to 0.5 µM
O=C(Nc1ccccc1)c1cc(-c2nc(N[C@H]3CCCNC3)ncc2C(F)(F)F)c[nH]1 [CDK7_538, N-phenyl-4-(2-{[(3S)-piperidin-3-yl]amino}-5-(trifluoromethyl)pyrimidin-4-yl)-1H-pyrrole-2-carboxamide] | < 6.70 | 6.00 to 7.00 | 6.70 to 7.30 | 7.30 to 8.30 | 0.5 to 2 µM
Nc1ccccc1Nc1nc(N[C@H]2CCCNC2)ncc1C(F)(F)F [CDK7_550, N4-(2-aminophenyl)-N2-[(3S)-piperidin-3-yl]-5-(trifluoromethyl) pyrimidine-2,4-diamine] | < 6.70 | < 6.00 |  | 6.70 to 7.30 | > 2 µM
FC(F)(F)c1cnc(N[C@H]2CCCNC2)nc1Oc1ccccc1 [CDK7_754, 4-phenoxy-N-[(3S)-piperidin-3-yl]-5-(trifluoromethyl) pyrimidin-2-amine] | < 6.70 | < 6.00 |  | 7.30 to 8.30 | > 2 µM
FC(F)(F)c1cnc(N[C@H]2CCCNC2)nc1Cc1ccccc1 [CDK7_766, 4-benzyl-N-[(3S)-piperidin-3-yl]-5-(trifluoromethyl) pyrimidin-2-amine] | < 6.70 | < 6.00 |  | 6.70 to 7.30 | > 2 µM
FC(F)(F)c1cnc(N[C@H]2CCCNC2)nc1-n1ccc2ccccc21 [CDK7_809, 4-(1H-indol-1-yl)-N-[(3S)-piperidin-3-yl]-5-(trifluoromethyl)py-rimidin-2-amine] | < 6.70 | < 6.00 |  | 7.30 to 8.30 | > 2 µM
FC(F)(F)c1cnc(N[C@H]2CCCNC2)nc1-n1cnc2ccccc21 [CDK7_810, 4-(1H-1,3-benzodiazol-1-yl)-N-[(3S)-piperidin-3-yl]-5-(trifluoromethyl)py-rimidin-2-amine] | < 6.70 | < 6.00 |  | 7.30 to 8.30 | > 2 µM
FC(F)(F)c1cnc(N[C@H]2CCCNC2)nc1Oc1cccc2c1NCCC2 [CDK7_829, N-[(3S)-piperidin-3-yl]-4-(1,2,3,4-tetrahydroquin-olin-8-yloxy)-5-(trifluoromethyl) pyrimidin-2-amine] |  | < 6.00 |  |  | > 2 µM
FC(F)(F)c1cnc(N[C@H]2CCCNC2)nc1Oc1cccc2cccnc12 [CDK7_830, N-[(3S)-piperidin-3-yl]-4-(quinolin-8-yloxy)-5-(trifluoromethyl) pyrimidin-2-amine] |  | < 6.00 |  |  | > 2 µM
O=C1CN(c2nc(N[C@H]3CCCNC3)ncc2C(F)(F)F)c2ccccc2N1 [CDK7_900, 4-(2-{[(3S)-piperidin-3-yl]amino}-5-(trifluoromethyl)pyrimidin-4-yl)-1,2,3,4-tetrahydroquin-oxazolin-2-one] |  |  |  |  | > 2 µM

Now from value to compound, other results behind:

pIC50 [1] | pIC50 [2] | pIC50 [3] | pIC50 [5] | Compound | CC50 at 72 h [4]
< 6.70 |  | < 6.70 | 7.30 to 8.30 | CN1CCc2c(-c3nc(N[C@H]4CCCNC4)ncc3C(F)(F)F)c[nH]c2C1=O [CDK7_843, 6-methyl-3-(2-{[(3S)-piperidin-3-yl]amino}-5-(trifluoromethyl)pyrimidin-4-yl)-1H,4H,5H,6H, 7H-pyrrolo[2,3-c]pyridin-7-one] | 
< 6.70 | < 6.00 |  | 7.30 to 8.30 | CP(C)(=O)c1cccc(Nc2nc(N[C@H]3CCCNC3)ncc2C(F)(F)F)c1 [CDK7_888, N4-[3-(dimethylphos-phoryl)phenyl]-N2-[(3S)-piperidin-3-yl]-5-(trifluoromethyl) pyrimidine-2,4-diamine] | > 2 µM
< 6.70 | 6.00 to 7.00 |  | 7.30 to 8.30 | NS(=O)(=O)c1cccc(Nc2nc(N[C@H]3CCCNC3)ncc2C(F)(F)F)c1 [CDK7_891, 3-[(2-{[(3S)-piperidin-3-yl]amino}-5-(trifluoromethyl)pyrimidin-4-yl)amino] benzene-1-sulfonamide] | 
< 6.70 |  |  |  | CP(C)(=O)c1ccccc1Oc1nc(N[C@H]2CCCNC2)ncc1C(F)(F)F [CDK7_897, 4-[2-(dimethylphos-phoryl)phenoxy]-N-[(3S)-piperidin-3-yl]-5-(trifluoromethyl) pyrimidin-2-amine] | > 2 µM
< 6.70 | 6.00 to 7.00 |  | 7.30 to 8.30 | CC(=O)Nc1ccccc1Nc1nc(N[C@H]2CCCNC2)ncc1C(F)(F)F [CDK7_898, N-{2-[(2-{[(3S)-piperidin-3-yl]amino}-5-(trifluoromethyl)pyrimidin-4-yl)amino]phenyl} acetamide] | > 2 µM
 |  |  | 7.30 to 8.30 | O=c1[nH]cc(-c2nc(N[C@H]3CCCNC3)ncc2C(F)(F)F)c2ccccc12 [CDK7_921, 4-(2-{[(3S)-piperidin-3-yl]amino}-5-(trifluoromethyl)pyrimidin-4-yl)-1,2-dihydroisoquin-olin-1-one] | 
 |  |  | < 6.70 | CN(C)C(=O)c1c[nH]cc1-c1nc(N[C@H]2CCCNC2)ncc1C(F)(F)F [CDK7_991, N,N-dimethyl-4-(2-{[(3S)-piperidin-3-yl]amino}-5-(trifluoromethyl)py-rimidin-4-yl)-1H-pyrrole-3-carboxamide] | 
< 6.70 |  | < 6.70 | 7.30 to 8.30 | CN1CCC[C@H](Nc2ncc(C(F)(F)F)c(-c3c[nH]c(C(=O)N(C)C)c3)n2)C1 [CDK7_1019] | > 2 µM
< 6.70 |  | < 6.70 | 7.30 to 8.30 | Cn1c(-c2cc(-c3nc(N[C@H]4CCCNC4)ncc3C(F)(F)F)c[nH]2)nc2ccccc21 [CDK7_1124, 4-[5-(1-methyl-1H-1,3-benzodiazol-2-yl)-1H-pyrrol-3-yl]-N-[(3S)-piperidin-3-yl]-5-(trifluoromethyl)py-rimidin-2-amine] | > 2 µM
